US20220364135A1, “MODIFIED PROPIONIBACTERIUM AND METHODS OF USE” (priority 2019, published 2022)

Legend:
[1] = system: cbiMCbl riboswitch; experiment: FbFP reporter assay, WT cbiMCbl riboswitch in FbFP-ΔcobA strain; type: cell-based, P. UF1; conditions: for FbFP expression with VB12 analogues: various concentrations of analogues
Source text: (§1) To generate the cbiMCbl riboswitch-FbFP translational fusion constructs, the 5′ UTR (FIG. 6C) containing the promoter of cobA operon, wild-type cbiMCbl riboswitch and ribosome-binding site was PCR amplified from P. UF1 genome (NCBI Genome database, CP018002) with primers S-cobA-1 and S-cobA 22. The codon-optimized FbFP gene (32) was synthesized (GenScript, Piscataway, N.J.) and PCR amplified using primers S-cobA 33 and S-cobA 4. Overlapping PCR was used to ligate the 5′ UTR and FbFP gene using Primers cobA-1 and S-cobA-4, which was subsequently cloned into plasmid pYMZ between BamHI and XbaI sites. Mutations of the cbiMCbl riboswitch were generated by site-directed mutagenesis or overlapping PCR (Table S1). cbiM, cbiN, cbiO, cobA, and tetR reporters were constructed using similar strategies. All plasmids were verified via Sanger sequencing (Genewiz, South Plainfield, N.J.) and introduced into P. UF1 or ΔcobA P. UF1 by electroporation.
(§2) FbFP reporter assays: To perform FbFP fluorescence intensity measurement, bacteria were cultivated for three days in triplicate, washed, and resuspended with PBS. The excitation and emission wavelengths of FbFP were set at 452 nm and 495 nm on a microplate reader (BioTek, Winooski, Vt.), respectively (48). FbFP intensity at 495 nm was normalized by corresponding OD600 values for each sample. P. UF1 strain with an empty vector was used as the baseline for calculation of fluorescence intensity.

[2] = system: cobA operon; experiment: Western blot of cobA operon gene expression under WT cbiMCbl riboswitch in ΔcobA P. UF1 reporter strains; type: cell-based; conditions: for cbiM expression with VB12 analogues: various concentrations of analogues
Source text: as §1
Western blot: Bacteria were cultivated for three days, and washed three times, followed by lysozyme digestion (10 mg/ml) for 2 hours at 37° C. Cell lysates were separated by 12% SDS-PAGE, transferred to PVDF membranes (Sigma Aldrich, St. Louis, Mo.), and blocked with Odyssey blocking buffer (Li-Cor Biosciences, Lincoln, Nebr.). Subsequently, membranes were incubated with anti-HIS-tag antibody (Thermo Fisher Scientific, Waltham, Mass.), anti-TetR antibody (Takara Bio, Mountain view, CA), anti-CobA serum antibodies, or anti-LspA serum antibodies (Stock in our lab) for 2 h at room temperature in the blocking buffer with 0.02% Tween 20. After washing with TBST (20 mM Tris, 150 mM NaCl and 0.1% Tween 20, pH 7.4), membranes were incubated with IRDye 680RD goat anti-mouse secondary antibody (Li-Cor Biosciences, Lincoln, Nebr.) for 1 hour at room temperature in the blocking buffer with 0.02% Tween 20. After washing with TBS, the proteins were detected using an Odyssey infrared imaging system (Li-Cor Biosciences, Lincoln, Nebr.). LspA was used as an internal control.

[3] = system: cobA operon; experiment: qRT-PCR of cobA operon transcription; type: cell-based; conditions: P. UF1 incubated with various concentrations of VB12
Source text: Quantitative RT-PCR: Total RNA was extracted from various bacterial cultures using Trizol reagent (Thermo Fisher Scientific, Waltham, Mass.), and the RNA mixtures were further purified using the Aurum Total RNA Mini Kit (Bio-Rad, Hercules, Calif.). The cDNA was synthesized from total RNA using iScript Advanced cDNA Synthesis Kit (Bio-Rad, Hercules, Calif.). Quantitative real-time was accomplished with SsoAdvanced Universal SYBR Green Supermix (Bio-Rad, Hercules, Calif.) on a CFX96 real-time PCR system (Bio-Rad, Hercules, Calif.) using primers listed in Table 2 above. Results were normalized to those obtained from groL2 gene.

[4] = system: 5′ UTR of cobA operon; experiment: FbFP and cbiM reporter expression in FbFP-WT and CbiM-WT strains; type: cell-based, P. UF1; conditions: FbFP-WT and CbiM-WT cultures
Source text: as §1
[…] The excitation and emission wavelengths of FbFP were set at 452 nm and 495 nm on a microplate reader (BioTek, Winooski, Vt.), respectively (48). […] P. UF1 strain with an empty vector was used as the baseline for calculation of fluorescence intensity.
[…] After washing with TBS, the proteins were detected using an Odyssey infrared imaging system (Li-Cor Biosciences, Lincoln, Nebr.). […]

[5] = system: SL1-deleted riboswitch (ΔSL1); experiment: Western blot of cbiM expression, SL1-deleted riboswitch in CbiM-ΔcobA strain; type: cell-based, P. UF1; conditions: VB12 0-5000 ng/ml
Source text: as §1
Western blot: Bacteria were cultivated for three days, and washed three times, followed by lysozyme digestion (10 mg/ml) for 2 hours at 37° C. […] After washing with TBS, the proteins were detected using an Odyssey infrared imaging system (Li-Cor Biosciences, Lincoln, Nebr.). […]

[6] = system: SL1-deleted riboswitch (ΔSL1); experiment: FbFP reporter assay, SL1-deleted riboswitch in FbFP-ΔcobA strain; type: cell-based, P. UF1
Source text: as §1
as §2, with “FbFP intensity at 495 nm was normalized by corresponding OD600 values for each sample.” left out

Molecule: C/C1=C2/[N-][C@H]([C@H](CC(N)=O)[C@@]2(C)CCC(=O)NC[C@@H](C)OP(=O)([O-])O[C@H]2[C@@H](O)[C@@H](n3cnc4cc(C)c(C)cc43)O[C@@H]2CO)[C@]2(C)N=C(/C(C)=C3N=C(/C=C4N=C1[C@@H](CCC(N)=O)C\4(C)C)[C@@H](CCC(N)=O)[C@]\3(C)CC(N)=O)[C@@H](CCC(N)=O)[C@]2(C)CC(N)=O.[Co+3].[OH-] [hydroxocobalamin]
- FbFP expression with VB12 analogues ([1]; FbFP-ΔcobA strain): similarly downregulated
- cbiM expression with VB12 analogues ([2]; CbiM-ΔcobA strain): similarly downregulated

Molecule: C/C1=C2/[N-][C@H]([C@H](CC(N)=O)[C@@]2(C)CCC(=O)NC[C@H](C)OP(=O)([O-])O[C@H]2[C@@H](O)[C@@H](n3cnc4cc(C)c(C)cc43)O[C@@H]2CO)[C@]2(C)N=C(/C(C)=C3N=C(/C=C4N=C1[C@@H](CCC(N)=O)C\4(C)C)[C@@H](CCC(N)=O)[C@]\3(C)CC(N)=O)[C@@H](CCC(N)=O)[C@]2(C)CC(N)=O.[CH3-].[Co+3] [methylcobalamin]
- FbFP expression with VB12 analogues ([1]; FbFP-ΔcobA strain): similarly downregulated
- cbiM expression with VB12 analogues ([2]; CbiM-ΔcobA strain): similarly downregulated

Molecule: Vitamin B12 [VB12]
- mRNA levels of cbiM, cbiN, cbiO and cbiQ [3]: significantly repressed
- VB12 concentration completely inhibiting expression of downstream genes by cbiMCbl riboswitch [1]: 750 µM
- VB12 concentration at which expression of FbFP was completely abated ([1]; FbFP-ΔcobA strain, WT riboswitch): 500 ng/mL
- half maximal inhibitory concentration (IC50) of VB12 on FbFP expression ([1]; FbFP-ΔcobA strain, WT riboswitch, VB12 0-2500 ng/ml): 0.0752 µg/mL
- repression of FbFP expression ([1]; WT riboswitch, 250 ng/ml VB12): ~10 fold
- expression of FbFP and cbiM [4]: significantly decreased
- cbiM expression, ΔSL1 compared to WT riboswitch [5]: no repression
- IC50 of VB12 on FbFP expression, SL1-deleted riboswitch ([6]; FbFP-ΔcobA strain, ΔSL1 riboswitch, VB12 0-5000 ng/ml): 12.962 µg/mL
- IC50 with ΔSL1 relative to WT riboswitch ([6]; ΔSL1 vs WT riboswitch): 256 times
- cbiM expression (Western blot, HIS-tag antibody) ([2]; CbiM-ΔcobA strain, VB12 0-2500 ng/ml): dose-dependent inhibition
- expression of cbiN and cbiO (Western blot) ([2]; CbiN-ΔcobA and CbiO-ΔcobA cultures, VB12 0-25000 ng/ml): dampened
- cobA expression (Western blot) ([2]; CobA-ΔcobA strain, VB12 0-25000 ng/ml): dose-dependent inhibition but to a lesser extent

Molecule: cyanocobalamin
- FbFP expression with VB12 analogues ([1]; FbFP-ΔcobA strain): similarly downregulated
- cbiM expression with VB12 analogues ([2]; CbiM-ΔcobA strain): similarly downregulated

Molecule: C/C1=C2/[N-][C@H]([C@H](CC(N)=O)[C@@]2(C)CCC(=O)NC[C@@H](C)OP(=O)([O-])O[C@H]2[C@@H](O)[C@@H](n3cnc4cc(C)c(C)cc43)O[C@@H]2CO)[C@]2(C)N=C(/C(C)=C3N=C(/C=C4N=C1[C@@H](CCC(N)=O)C\4(C)C)[C@@H](CCC(N)=O)[C@]\3(C)CC(N)=O)[C@@H](CCC(N)=O)[C@]2(C)CC(N)=O.[CH2-][C@H]1O[C@@H](n2cnc3c(N)ncnc32)[C@H](O)[C@@H]1O.[Co] [adenosylcobalamin]
- FbFP expression with VB12 analogues ([1]; FbFP-ΔcobA strain): similarly downregulated
- cbiM expression with VB12 analogues ([2]; CbiM-ΔcobA strain): similarly downregulated
